Experimental findings from patent US20250387417A1, “CANNABINOID DERIVATIVES AND COMPOSITIONS COMPRISING SAME” (CANNASOUL ANALYTICS LTD., priority 2022, published 2025) are described below.

For the assay, the system named is MCP-1 secretion. The assay is described as follows: Acute inflammation: LPS-induced MCP-1 secretion in human colon epithelial cells (ELISA). The format is cell-based. Conditions: 10 ng/ml LPS, 24 hours, ELISA of supernatants, FIG. 1. The procedure:
The efficacy of the compounds according to certain embodiments of the present invention in the treatment of IBD was assessed. Human colon epithelial cells were thawed and cultured in suitable media at a final concentration of 4×10^5 cells per mL. The cells were then cultured and tested in triplicates for 48 hours. Following incubation, controls and test compounds were diluted in culture media to achieve the final assay concentration. Cells were treated with 10 ng/ml LPS with or without positive control/test compounds and incubated for 24 hours. Rosiglitazone at 7.2 μg/ml served as a positive control. Following incubation, the supernatants were collected, and the secretion levels of MCP-1 were measured by ELISA (R&D systems). Optical density was determined by ‘CLARIOStar-plus’® plate-reader. The chemokine concentration (pg/ml) was calculated using a standard curve.

Take `CCCCCCc1cc(O)c(C/C=C(\C)CCC=C(C)C)c(O)c1OC(C)=O` [(E)-3-(3,7-dimethylocta-2,6-dien-1-yl)-6-hexyl-2,4-dihydroxyphenyl acetate]: the “inhibition of MCP-1 secretion” value is “effectively inhibited MCP-1 secretion in a statistically significant manner”.

Turning to `CCCCCc1cc(O)c(C2C=C(C)CCC2C(C)(C)O)c(O)c1OC(C)=O` (stereo not shown) [Compound 17], the “inhibition of MCP-1 secretion” value is recorded as “effectively inhibited MCP-1 secretion in a statistically significant manner”.

For the compound `CCCCCc1cc(O)c(CC=C(C)C)c(O)c1OC(C)=O` [Compound 15], the “inhibition of MCP-1 secretion” value is recorded as “effectively inhibited MCP-1 secretion in a statistically significant manner” and the “inhibitory effect on MCP-1 secretion compared among the test compounds” value is reported as “most pronounced inhibitory effect on MCP-1 secretion”.
